Assay results: PMC8467577, “Infection Responsive Smart Delivery of Antibiotics Using Recombinant Spider Silk Nanospheres” (Pharmaceutics, 2021)
Peptide text beside a SMILES is read from it.

Tests used:
[1] = Exposure to human serum (HPLC); assay type: in vitro ADME
Text: Frequent and inappropriate usage of antibiotics has changed the natural evolution of bacteria by reducing susceptibility and increasing resistance towards antibacterial agents. New resistance mechanisms evolved in the response to host defenses and pharmaceutical interventions are threatening our ability to treat common infections, resulting in increased mortality. In the face of this rising epidemic, antibiotic drug discovery, which has long been overlooked by big pharma, is reaching a critical low. Thus, the development of an infection-responsive drug delivery system, which may mitigate multidrug resistance and preserve the lifetime of our current antibiotic arsenal, has garnered the attention of both popular science and funding agencies. The present work describes the development of a thrombin-sensitive linker embedded into a recombinant spider silk copolymer to create a nanosphere drug delivery vehicle. […] A thrombin sensitive peptide (TSP) was synthesized, and the thrombin cleavage sensitivity was determined by HPLC. […] Subsequently, the peptide was coupled with a silk copolymer via EDC-NHS chemistry and formulated into nanospheres encapsulating antibiotic vancomycin. These nanospheres were evaluated for in vitro infection-responsive drug release and antimicrobial activity. Finally, the drug responsive nanospheres were assessed for efficacy in an in vivo septic arthritis model. […]

[2] = test system: bacterial thrombin-like enzyme (media from an actively growing S. aureus culture); test: Susceptibility to spent S. aureus culture media (HPLC); conditions: for degradation of silk protein in S. aureus bacterial media: 48 h, different concentrations of spent bacterial media vs control without media, 37 °C, HPLC area under the curve
Description: (§1) The thrombin-sensitive peptide, […] (TSP), was custom synthesized by standard Fmoc synthesis (WatsonBio, Houston, TX, USA). The susceptibility of the peptide to the bacterial thrombin-like enzyme was assessed by exposing the peptide to media from an actively growing S. aureus culture. Enzymatic activity of the media was initially determined by titrating culture exudate into a fluorogenic thrombin substrate, Boc-Val-Pro-Arg-MCA (Sigma Aldrich, St. Louis, MO, USA). TSP was then exposed to the media with varying enzymatic activity and incubated at 37 °C with shaking. The sample was analyzed with HPLC (mobile phase 0.1% TFA/water (A) 0.1% TFA/Acetonitrile (B), under a gradient flow of 5–90% at a flow rate of 1.0 mL/min) every 12 h through 48 h. Protein was detected at a wavelength of 215 nm. A similar experiment was conducted with the recombinant spider silk to check the susceptibility of the silk protein to the bacterial enzyme.

human thrombin = human thrombin (Homo sapiens, UniProt P00734)
Description: as §1
(§2) The susceptibility of the TSP to the bacterial thrombin-like enzyme was assessed by exposing the peptide to media from an actively growing S. aureus culture. Enzymatic activity of the bacterial culture was determined by a fluorogenic thrombin substrate, Boc-Val-Pro-Arg-MCA. TSP was initially titrated into media with varying enzymatic activity to determine the amount of enzyme required to cleave the peptide.

[3] = water control, HPLC
Description: as §1, §2

S. aureus = conditions: standard ZOI values of the free drug for SA; ref not given; cited from earlier work
Description: To explore the potential efficacy of this delivery system for the treatment of S. aureus septic arthritis, the antibacterial effect of Vancomycin-loaded nanospheres was first tested in vitro on Staphylococcus aureus. […] Once the MIC was established, antibacterial activity was tested by a Kirby Bauer Zone of Inhibition assay.

[4] = test system: S. aureus infected knee joint; test: In vivo septic arthritis model, H&E histopathology of knee joint; design: species or system Sprague Dawley rats; conditions: H&E staining, 48 h after local treatment
Description: After establishing the septic arthritis disease model, treatment with either free drug, drug-loaded conjugate particles, or drug-loaded silk particles was given on day two after bacterial inoculation. Rats were divided into three treatment groups (Table 1). The first group received drug-loaded (14 mg/kg) conjugate nanoparticles in the infected knee locally delivered into the synovial joint space while the uninfected knee was injected with unloaded conjugate nanoparticles. The second group received drug-loaded plain silk SX2 particles into the infected knee while the uninfected knee was injected with unloaded SX2 particles. The third group received a free drug into the infected knee joint and sterile PBS into the uninfected knee. The treatment was continued for 48 h after which rats were euthanized and limbs were collected for histopathological analysis. Before euthanasia, synovial fluid was collected from the joint space of the infected knee and the control knee of all the groups and cultured on LB agar plates overnight. After incubation overnight, the number of colonies were counted.
Histopathology was performed on the infected and uninfected bones by hematoxylin and eosin (H and E) stain. Initially the bones were harvested from the rat after euthanasia and fixed in 10% neutral buffered formalin for 72 h. […]

[5] = Critical aggregation concentration by pyrene fluorescence; assay type: physicochemical; conditions: pyrene fluorescence I1/I3 (379/393 nm), phosphate buffer, sonicated 5 min, incubated 1 h
Description: The critical aggregation concentration (CAC) of silk was determined by the pyrene fluorescence method. Briefly, 20 µL of 24 µg/mL (working concentration) of a pyrene solution was prepared in acetone and acetone was evaporated. Later, 980 µL of silk peptide in the phosphate buffer at different concentrations was then added to the pyrene, and the mixture was sonicated for 5 min and incubated for 1 h. The fluorescence spectra of the samples were recorded at an excitation of 336 nm and emission of 360–450 nm wavelengths. Intensity peaks at 379 nm (I1) and 393 nm (I3) were recorded. The ratio of I1/I3 was plotted against log concentration, and the point where a sharp inclination in the graph was noted as the CAC.

thrombin = conditions: releasing gentamicin linked to a polyvinyl alcohol (PVA) support matrix; cited from earlier work
Text: Strategies utilizing microenvironments unique to tissues and disease states as a molecular cue to activate drug release has gained widespread attention in the treatment of various diseases like cancer, diabetes, and bacterial infections as it increases drug stability and therapeutic efficacy while decreasing toxic side effects at the same time. Several enzymes including a thrombin-like enzyme in S. aureus, myeloperoxidase in Candida, and esterases in uropathogens were reported to be elevated during infection, whereas virulence factors for certain bacteria like b ...

C[C@H](NC(=O)[C@@H]1CCCN1C(=O)[C@H](Cc1ccccc1)NC(=O)CNC(=O)[C@H](CCCNC(=N)N)NC(=O)[C@@H]1CCCN1C(=O)[C@H](CC(=O)O)NC(=O)[C@H](Cc1ccccc1)NC(=O)CNC(=O)[C@H](CCCCN)NC(=O)[C@H](CC(=O)O)NC(=O)[C@H](CC(=O)O)NC(=O)[C@H](CC(=O)O)NC(=O)[C@H](CC(=O)O)NC(=O)[C@H](Cc1c[nH]cn1)NC(=O)[C@H](Cc1c[nH]cn1)NC(=O)[C@H](Cc1c[nH]cn1)NC(=O)[C@H](Cc1c[nH]cn1)NC(=O)[C@H](Cc1c[nH]cn1)NC(=O)[C@@H](N)Cc1c[nH]cn1)C(=O)NCC(=O)NCC(=O)O [TSP] (H-HHHHHHDDDDKGFDPRGFPAGG-OH)
cleavage on exposure to human serum [1]: no cleavage | cleavage on incubation with S. aureus exudate ([2]; S. aureus exudate, HPLC): cleaved | time to cleavage of the peptide in S. aureus bacterial media ([2]; media from actively growing S. aureus culture, enzymatic activity 23 a.u., 37 °C with shaking, HPLC 215 nm every 12 h through 48 h): ≤ 12 h | degradation in human thrombin after 48 h (human thrombin): minimal degradation | stability to human thrombin (human thrombin): still intact | stability to human thrombin after 24 h (human thrombin): intact | stability in water after 24 h ([3]; 24 h exposure, n = 3): intact | stability in water ([3]; data not shown): still intact

CN[C@H](CC(C)C)C(=O)N[C@H]1C(=O)N[C@@H](CC(N)=O)C(=O)N[C@H]2C(=O)N[C@H]3C(=O)N[C@H](C(=O)N[C@H](C(=O)O)c4cc(O)cc(O)c4-c4cc3ccc4O)[C@H](O)c3ccc(c(Cl)c3)Oc3cc2cc(c3O[C@@H]2O[C@H](CO)[C@@H](O)[C@H](O)[C@H]2O[C@H]2C[C@](C)(N)[C@H](O)[C@H](C)O2)Oc2ccc(cc2Cl)[C@H]1O [vancomycin-free drug, vancomycin]
standard ZOI value (S. aureus): > 12 mm | histopathological findings in infected joint [4]: similar, if not more inflamed, appearance

(GGYGPGQQGPGGYGPGQQGPSGPGSAAAAAAAA)2 [silk, recombinant MaSp2 spider silk protein, two consensus repeats, six histidine tag and enterokinase site, expressed in E. coli]
degradation of silk protein in S. aureus bacterial media ([2]; listed as silk peptide): stability of the peptide even after 48 h | degradation of silk protein in S. aureus bacterial media ([2]; listed as silk protein): no significant difference in the degradation | critical aggregation concentration (CAC) [5]: 1.2 mg/mL

GFDPRGFPAGG
time to complete cleavage (thrombin): ≤ 15 min
